“And” between values parts separate entries of the source, which are not always exact repeats. Equal entries are not always repeated.
Tested on: 186277-243-T-J2-PDC spheroids with HUVEC/MSC, viability
Test: Anticancer human tumor 186277-243-T-J2-PDC patient-derived colon adenocarcinoma cell line growth inhibition [CLK]
Conditions: for viability, T/C: stronger effect = lower value
Text: A high-throughput screen of multi-cell type tumor spheroids was designed to identify active combinations of […] and targeted small molecules. Complex spheroids include a stromal component modeled by human endothelial cells (HUVEC) and fibroblasts modeled by human mesenchymal stem cells (MSCs). The concentration ranges selected for each drug and investigational agent were based upon clinically achievable concentrations if the clinical Cmax of the agent was known.
Compounds. The drugs and investigational agents: cirtuvivint (SM08502; NSC835563), CC-671 (NSC850746), vemurafenib (NSC761431), tapotoclax (NSC804041), sotorasib (NSC818433), adagrasib (NSC831453), MRTX-1133 (NSC836407), BAY2416964 (NSC825713), copanlisib (NSC816437), inavolisib (NSC800729), abemaciclib (NSC768073), osimertinib (NSC779217), entinostat (NSC756642), eltanexor (KPT-8602, NSC794443), venetoclax (NSC766270), ceralasertib (NSC777638), bortezomib (NSC756655), olaparib (NSC753686), talazoparib (NSC767125), alisertib (NSC759677), peposertib (NSC802822), gemcitabine (NSC613327), 5-fluorouracil (NSC19893), SN-38 (NSC673596), oxaliplatin (NSC266046), paclitaxel (NSC125973), and doxorubicin (NSC123127), were obtained from the National Cancer Institute (NCI) Developmental Therapeutics Program Chemical Repository. The FDA-approved anticancer drug set is available from the Developmental Therapeutics Program at https://dtp.cancer.gov/organization/dscb/obtaining/available plates.htm. […] The stock solutions were prepared in dimethyl sulfoxide (DMSO, Sigma-Aldrich, St. Louis, MO, cat. D2650), except for the platinum complexes which were prepared in saline (Quality Biological, Gaithersburg, MD, cat. 114-055-101), at 800-fold the tested concentration and stored at -70 degrees C prior to their use. All drugs and investigational agents were tested over a range starting from a high concentration at or near the clinical Cmax and decreasing in half-log increments. If the clinical Cmax for an agent had not been determined, the highest concentration tested was 10 microM.
Cell Culture. All cells were maintained in an incubator at 37 degrees C and 5% CO2 with 95% humidity. The PDC lines were cultured according to standard operating procedures established by the NCI PDMR. Briefly, all PDCs were thawed and cultured in Matrigel-coated flasks prepared with a working solution of 1X Ham's F-12 nutrient mix, without supplementation (Invitrogen, Waltham, MA, cat. 11765054), 100 U/mL penicillin-streptomycin (Invitrogen, cat. 15140122), and 2.5% Matrigel (Corning Inc., Corning, NY, cat. 354248) for the first three passages. The 947758-054-R-J2-PDC line was cultured in 6B/Colon 1A media, which includes advanced DMEM/F-12 (Thermo Fisher Scientific, cat. 12634028), 10 mM HEPES (Thermo Fisher Scientific, cat. 15630080), 1X GlutaMAX supplement (Thermo Fisher Scientific, cat. 35050061), 0.1 mg/mL primocin (InvivoGen, cat. ant-pm-2), 10% defined fetal bovine serum, heat inactivated (HyClone Laboratories Inc., cat. SH30070.03HI), 1.25 mM N-Acetyl-L-cysteine (Sigma-Aldrich, cat. A9165), 10 mM nicotinamide (Sigma-Aldrich, cat. N0636), 1X B-27 supplement (Thermo Fisher Scientific, cat. 17504044), 1X N-2 supplement (Thermo Fisher Scientific, cat. 17502048), and 10 microM Y-27632 dihydrochloride (Tocris Bioscience, cat. 1254). The 876862-298-R-J1-PDC was cultured in 6E media, which includes all 6B/Colon 1A media components plus 50% L-WRN conditioned media (ATCC, cat. CRL-3276), 50 ng/mL recombinant human EGF recombinant protein (hEGF; Thermo Fisher Scientific, cat. PHG0311), 10 ng/mL recombinant human fibroblast growth factor 10 (hGFG-10; PeproTech, cat. 100-26), 1 ng/mL recombinant human fibroblast growth factor 2 (hFGF-2; PeproTech, cat. 100-18B), and 1 µM prostaglandin E2 (PGE2; Tocris, cat. 2296). The 227483-062-R1-J1-PDC line was cultured in Panc media, containing all 6E components except hFGF-2, with the addition of 500 nM SB-431542 (Selleckchem, cat. S1067) and 10 nM gastrin (Tocris, cat. 3006). […]
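Also: compound exposure lasted seven days before readout.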
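For viability, T/C in this document: 100% = DMSO vehicle control wells.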

CCN1CCN(Cc2ccc(Nc3ncc(F)c(-c4cc(F)c5nc(C)n(C(C)C)c5c4)n3)nc2)CC1 + CNC(=O)c1ccc(Nc2nc(OC3CCCC3)c3c(-c4ccc5nc(C)oc5c4)c[nH]c3n2)c(OC)c1
IC50 (curve of first compound, second compound 0.0316 µM): > 1000 nM
IC50 (curve of first compound, second compound 0.1 µM): > 1000 nM
IC50 (curve of first compound, second compound 0.316 µM): > 1000 nM
IC50 (curve of first compound, second compound 1 µM): < 3.16 nM
IC50 (curve of first compound, second compound 3.16 µM): < 3.16 nM
IC50 (curve of first compound, second compound 10 µM): < 3.16 nM
viability, T/C (second compound 0.0316 µM, first compound 0.00316 µM): 123%
viability, T/C (second compound 0.0316 µM, first compound 0.01 µM): 101%
viability, T/C (second compound 0.0316 µM, first compound 0.0316 µM): 148%
viability, T/C (second compound 0.0316 µM, first compound 0.1 µM): 116%
viability, T/C (second compound 0.0316 µM, first compound 0.316 µM): 125%
viability, T/C (second compound 0.0316 µM, first compound 1 µM): 117%
viability, T/C (second compound 0.1 µM, first compound 0.00316 µM): 92.7%
viability, T/C (second compound 0.1 µM, first compound 0.01 µM): 98.5%
viability, T/C (second compound 0.1 µM, first compound 0.0316 µM): 104%
viability, T/C (second compound 0.1 µM, first compound 0.1 µM): 103%
viability, T/C (second compound 0.1 µM, first compound 0.316 µM): 114%
viability, T/C (second compound 0.1 µM, first compound 1 µM): 104%
viability, T/C (second compound 0.316 µM, first compound 0.00316 µM): 59%
viability, T/C (second compound 0.316 µM, first compound 0.01 µM): 64.3%
viability, T/C (second compound 0.316 µM, first compound 0.0316 µM): 71.6%
viability, T/C (second compound 0.316 µM, first compound 0.1 µM): 78.8%
viability, T/C (second compound 0.316 µM, first compound 0.316 µM): 76.5%
viability, T/C (second compound 0.316 µM, first compound 1 µM): 74.8%
viability, T/C (second compound 1 µM, first compound 0.00316 µM): 41.8%
viability, T/C (second compound 1 µM, first compound 0.01 µM): 47.8%
viability, T/C (second compound 1 µM, first compound 0.0316 µM): 48.3%
viability, T/C (second compound 1 µM, first compound 0.1 µM): 60.5%
viability, T/C (second compound 1 µM, first compound 0.316 µM): 58.1%
viability, T/C (second compound 1 µM, first compound 1 µM): 61.5%
viability, T/C (second compound 3.16 µM, first compound 0.00316 µM): 39.1%
viability, T/C (second compound 3.16 µM, first compound 0.01 µM): 39.2%
viability, T/C (second compound 3.16 µM, first compound 0.0316 µM): 45.2%
viability, T/C (second compound 3.16 µM, first compound 0.1 µM): 47%
viability, T/C (second compound 3.16 µM, first compound 0.316 µM): 51.9%
viability, T/C (second compound 3.16 µM, first compound 1 µM): 59.6%
viability, T/C (second compound 10 µM, first compound 0.00316 µM): 41%
viability, T/C (second compound 10 µM, first compound 0.01 µM): 39.9%
viability, T/C (second compound 10 µM, first compound 0.0316 µM): 46.5%
viability, T/C (second compound 10 µM, first compound 0.1 µM): 43.4%
viability, T/C (second compound 10 µM, first compound 0.316 µM): 47.8%
viability, T/C (second compound 10 µM, first compound 1 µM): 46.9%

CC1COCCN1c1cc(C2(S(C)(=N)=O)CC2)nc(-c2ccnc3[nH]ccc23)n1 (centres undefined)
viability, T/C (compound 0.0316 µM): 103% and 82.6%
viability, T/C (compound 0.1 µM): 85.5% and 88%
viability, T/C (compound 0.316 µM): 96.9% and 95%
viability, T/C (compound 1 µM): 122% and 103%
viability, T/C (compound 3.16 µM): 41.2% and 34%
viability, T/C (compound 10 µM): 15% and 13.5%
IC50 (curve of compound): 2680 nM and 2310 nM
